Source: patent US10377774B2 (JINAN UNIVERSITY, priority 2013, dated 2019)
Marks after values point to notes of the source that are not given here.

What was measured:
[1] = system: human non-small-cell lung cancer cell line A549; experiment: MTT cell growth inhibition, A549; assay type: cell-based; conditions: Homo sapiens; A549, MTT assay, 72 h; read-out: IC50, growth of tumor cell line
[2] = system: human colon cancer cell line LOVO; experiment: MTT cell growth inhibition, LOVO; assay type: cell-based; conditions: Homo sapiens; LOVO (FAPα positive), MTT assay, 72 h; read-out: IC50, growth of tumor cell line
[3] = system: human nasopharyngeal carcinoma cell line CNE-2; experiment: MTT cell growth inhibition, CNE-2; assay type: cell-based; conditions: Homo sapiens; CNE-2, MTT assay, 72 h; read-out: IC50, growth of tumor cell line
[4] = system: human liver cancer cell line HepG2; experiment: MTT cell growth inhibition, HepG2; assay type: cell-based; conditions: Homo sapiens; HepG2, MTT assay, 72 h; read-out: IC50, growth of tumor cell line
[5] = system: human cervical carcinoma cell line Hela; experiment: MTT cell growth inhibition, Hela; assay type: cell-based; conditions: Homo sapiens, MTT assay, 72 h, read-out: IC50, growth of tumor cell line
[6] = system: human breast cancer cell line MCF-7; experiment: MTT cell growth inhibition, MCF-7; assay type: cell-based; conditions: Homo sapiens, MCF7; MCF-7, MTT assay, 72 h; read-out: IC50, growth of tumor cell line
Text: (§2) Experimental method: Cell lines (human non-small-cell lung cancer cell line A549, human colon cancer cell line LOVO, human nasopharyngeal carcinoma cell line CNE-2, human liver cancer cell line HepG2, human cervical carcinoma cell line Hela, human breast cancer cell lines MCF-7 and MDA-MB-231, human gastric carcinoma cell line NCI-N87, human prostatic cancer cell lines PC-3 and DU145, human leukemia cell line K562, human melanoma cell line A375, human neuroblastoma cell line SH-SY5H, human promyelocytic leukemia cell line HL-60, 5-FU-resistant human hepatocellular carcinoma cell line BEL-7402/5-Fu, doxorubicin-resistant hepatocellular carcinoma cell line HepG2/ADM, doxorubicin-resistant human breast cancer cell lines MCF-7/ADR) at logarithmic phase were resuspended in RPMI 1640 medium (containing 10% fetal bovine serum, 100 U/mL penicillin-streptomycin). Then, 100 μL of cells (cell concentration was 5×10^5/mL) were seeded into 96 wells plate. After 24 h incubation at 37° C. with 5% CO2, tested compounds were added (the control group without compound) for an additional 72 h incubation. After that, 30 μL of MTT [3-(4,5-Dimethylthiazol-2-yl)-2,5-diphenyltetrazolium bromide] solution (5 mg/mL) was added into each well and incubated for another 4 h at 37° C. and then the formazan crystals were solubilized with 100 μL DMSO. Finally, absorbance of each well was determined at 570 nm by a microplate reader (Thermo).
(§3) The concentration required to inhibit cell growth by 50% (IC50) was calculated from survival curves.

[7] = system: human breast cancer cell line MDA-MB-231; experiment: MTT cell growth inhibition, MDA-MB-231; assay type: cell-based; conditions: Homo sapiens; MDA-MB-231, MTT assay, 72 h; read-out: IC50, growth of tumor cell line
Text: as §2, §3

[8] = system: human gastric carcinoma cell line NCI-N87; experiment: MTT cell growth inhibition, NCI-N87; assay type: cell-based; conditions: Homo sapiens; NCI-N87, MTT assay, 72 h; read-out: IC50, growth of tumor cell line
[9] = system: human prostatic cancer cell line DU145; experiment: MTT cell growth inhibition, DU-145; assay type: cell-based; conditions: Homo sapiens; DU-145, MTT assay, 72 h; read-out: IC50, growth of tumor cell line
Text: as §2, §3

[10] = system: human leukemia cell line K562; experiment: MTT cell growth inhibition, K562; assay type: cell-based; conditions: Homo sapiens; K562, MTT assay, 72 h; read-out: IC50, growth of tumor cell line
Text: as §2, §3

[11] = system: human melanoma cell line A375; experiment: MTT cell growth inhibition, A375; assay type: cell-based; conditions: Homo sapiens, A-375; A375, MTT assay, 72 h; read-out: IC50, growth of tumor cell line
Text: as §2, §3

[12] = system: human neuroblastoma cell line SH-SY5H; experiment: MTT cell growth inhibition, SH-SY5H; assay type: cell-based; conditions: Homo sapiens, Neuroblastoma cell, MTT assay, 72 h, read-out: IC50, growth of tumor cell line
[13] = system: human promyelocytic leukemia cell line HL-60; experiment: MTT cell growth inhibition, HL-60; assay type: cell-based; conditions: Homo sapiens; HL-60, MTT assay, 72 h; read-out: IC50, growth of tumor cell line
[14] = system: 5-FU-resistant human hepatocellular carcinoma cell line BEL-7402/5-Fu; experiment: MTT cell growth inhibition, BEL-7402/5-Fu; assay type: cell-based; conditions: Homo sapiens, Bel7402/5-FU, MTT assay, 72 h, read-out: IC50, growth of tumor cell line
Text: as §2, §3

[15] = system: doxorubicin-resistant hepatocellular carcinoma cell line HepG2/ADM; experiment: MTT cell growth inhibition, HepG2/ADM; assay type: cell-based, human; conditions: Homo sapiens, MTT assay, 72 h, read-out: IC50, growth of tumor cell line
Text: as §2, §3

Acute toxicity test = assay type: in vivo; conditions: mouse, in vivo, ip; Kunming mice, injected intraperitoneally; read-out: LD50 (median lethal dose)
Protocol: Experimental method: Kunming mice were purchased from Guangdong Medical Experimental Animal Center, weighing 18-22 g, then randomly divided into several groups with 10 mice in each group. Different concentrations of VLB and vinca alkaloid dipeptide derivatives were injected intraperitoneally. Finally, the median lethal dose (LD50) was calculated according to the surviving animals.
LD50 was measured using the following formula:
LD50 (mg/kg)=The median lethal dose/body weight

MDA-MB-231 xenografts = MDA-MB-231 xenografts in nude mice; assay type: in vivo, BALB/nu/nu mice; conditions: MDA-MB-231 xenograft nude mice
Procedure, shortened: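 Female BALB/nu/nu mice bearing subcutaneous MDA-MB-231 tumours (1×10^7 cells; 70–100 mm^3 at randomisation), six per group. Compounds given at 1 mg/kg i.p. every two days for 8 doses versus saline. Tumour volume (V=½ab^2) and body weight tracked.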

HepG2 xenografts = HepG2 xenografts in nude mice; assay type: in vivo; conditions: HepG2 xenograft nude mice
Procedure, shortened: (§1)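 Female BALB/nu/nu mice received 1×10^7 cells subcutaneously and were randomized at 70–100 mm^3, six per group. Compounds were given at 1 mg/kg i.p. every two days for 8 doses, with saline as control. Tumor volume was calculated as V=½(ab^2), and body weight was monitored.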

LOVO xenografts = LOVO xenografts in nude mice; assay type: in vivo; conditions: LOVO xenograft nude mice
Procedure, shortened: as §1

K562 xenografts = K562 xenografts in nude mice; assay type: in vivo; conditions: K562 xenograft nude mice
Procedure, shortened: as §1

HL-60 xenografts = HL-60 xenografts in nude mice; assay type: in vivo; conditions: HL-60 xenograft nude mice
Procedure, shortened: as §1

[16] = MTT cytotoxicity on normal cells, LO2; conditions: human, LO2 cells (human normal liver cells)
Protocol: Then, 100 μL of cells (cell concentration was 5×10^5/mL) were seeded into 96 wells plate. After 24 h incubation at 37° C. with 5% CO2, tested compounds were added (the control group without compound) for an additional 72 h incubation. After that, 30 μL of MTT [3-(4,5-Dimethylthiazol-2-yl)-2,5-diphenyltetrazolium bromide] solution (5 mg/mL) was added into each well and incubated for another 4 h at 37° C. and then the formazan crystals were solubilized with 100 μL DMSO. Finally, absorbance of each well was determined at 570 nm by a microplate reader (Thermo).
The standard curve was drew with compound concentrations as the abscissa and cell growth inhibition rates as the ordinate. The concentration required to inhibit cell growth by 50% (IC50) was calculated from survival curves.
Experimental method: In vitro cytotoxicities of vinca alkaloids, hydrazinolyzed vinca alkaloids and vinca alkaloid dipeptide derivatives on human normal liver cells LO2 and human umbilical vein endothelial cells HUVEC were detected according to the method of Example 2.

[17] = MTT cytotoxicity on normal cells, HUVEC; conditions: human, HUVEC (human umbilical vein endothelial cells)
[18] = 1 mg/kg i.p. every two days, 8 administrations

CC[C@]1(O)C[C@@H]2CN(CCc3c([nH]c4ccccc34)[C@@](C(=O)OC)(c3cc4c(cc3OC)N(C)[C@H]3[C@@](O)(C(=O)OC)[C@H](OC(C)=O)[C@]5(CC)C=CCN6CC[C@]43[C@@H]65)C2)C1 [Vinblastine, reference compound] gave an IC50 [1] of 2.31 ± 0.13 nM, an IC50 [2] of 1.2 ± 0.24 nM and an IC50 [3] of 1.03 ± 0.07 nM. It also gave an IC50 [4] of 3.07 ± 0.12 nM, an IC50 [5] of 4.34 ± 0.36 nM and an IC50 [6] of 3.67 ± 1.34 nM. The IC50 [7] was 0.81 ± 0.35 nM, the IC50 [8] was 2.23 ± 0.43 nM and the IC50 [9] was 0.78 ± 0.31 nM. For the same compound, the IC50 [10] was 0.72 ± 0.2 nM, the IC50 [11] was 3.24 ± 0.39 nM and the IC50 [12] was 6.13 ± 0.51 nM. The IC50 [13] was 5.21 ± 0.84 nM, the IC50 [14] was 25.8 ± 3.01 nM and the IC50 [15] was 10.1 ± 1.12 nM. For the same compound, the LD50 (Acute toxicity test) was 4 mg/kg, the “Anti-tumor rate (%)” value (MDA-MB-231 xenografts; [18]) was 53.26** % and the “Body weight (g) Post-dose” value (MDA-MB-231 xenografts; [18]) was 18.3 ± 2.4 g. For the same compound, the “Tumor weight” value (MDA-MB-231 xenografts; [18]) was 1.22 ± 0.35 g, the “Body weight (g) Pre-dose” value (MDA-MB-231 xenografts; before dosing) was 20.7 ± 1.4 g and the “Anti-tumor rate (%)” value (HepG2 xenografts; 1 mg/kg) was 42.75* %. The “Body weight (g) Post-dose” value (HepG2 xenografts; 1 mg/kg) was 18.2 ± 1.8 g, the “Body weight (g) Pre-dose” value (HepG2 xenografts; before dosing) was 21.9 ± 0.7 g and the “Anti-tumor rate (%)” value (LOVO xenografts; 1 mg/kg) was 44.60* %. The “Body weight (g) Post-dose” value (LOVO xenografts; 1 mg/kg) was 19.6 ± 1.5 g, the “Tumor weight” value (LOVO xenografts; 1 mg/kg) was 1.59 ± 0.51 g and the “Body weight (g) Pre-dose” value (LOVO xenografts; before dosing) was 23.1 ± 1.4 g. For the same compound, the “Anti-tumor rate (%)” value (K562 xenografts; 1 mg/kg) was 49.81* %, the “Body weight (g) Post-dose” value (K562 xenografts; 1 mg/kg) was 17.4 ± 0.4 g and the “Tumor weight” value (K562 xenografts; 1 mg/kg) was 0.86 ± 0.10 g. The “Body weight (g) Pre-dose” value (K562 xenografts; before dosing) was 21.9 ± 0.7 g, the “Anti-tumor rate (%)” value (HL-60 xenografts; 1 mg/kg) was 52.89** % and the “Body weight (g) Post-dose” value (HL-60 xenografts; 1 mg/kg) was 16.2 ± 0.7 g. The “Tumor weight” value (HL-60 xenografts; 1 mg/kg) was 0.98 ± 0.25 g, the “Body weight (g) Pre-dose” value (HL-60 xenografts; before dosing) was 19.4 ± 1.0 g and the IC50 at 72 h [16] was 0.34 ± 0.07 nM. It also gave an IC50 at 72 h [17] of 0.76 ± 0.13 nM.
